# The supplement of paper PMC10307832
# Assays:
# Assay in all cases: relative viability (nuclei count vs DMSO), 5 days (fraction); higher = more cells survive
# [1] = compound: CCC1=CN=CN=C1N2CCN(CC2)CC3=NC4=C(N3)C=C(C=C4)C(F)(F)F + CCNC(=O)c1noc(-c2cc(C(C)C)c(O)cc2O)c1-c1ccc(CN2CCOCC2)cc1 [Luminespib] (partner 0.01 µM)
# How it was run: (§1)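 Lung cancer cell lines were pin-tool dosed in 1536-well plates on the day after seeding, with either a lone drug or a fixed anchor-drug dose plus five library-drug doses (not always all listed) in √10 steps. Nuclei were counted on 4× images after 5 days. Relative viability is the ratio of treated-well to vehicle-well nuclei counts, with each value a median of duplicate plates.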
# [2] = compound: CCn1c(-c2nonc2N)nc2cnc(Oc3cccc(NC(=O)c4ccc(OCCN5CCOCC5)cc4)c3)cc21 + Cc1cc(Nc2cc(N3CCN(C)CC3)nc(Sc3ccc(NC(=O)C4CC4)cc3)n2)n[nH]1 [Tozasertib] (partner 0.1 µM)
# How it was run: as §1
# [3] = compound: CCn1c(-c2nonc2N)nc2cnc(Oc3cccc(NC(=O)c4ccc(OCCN5CCOCC5)cc4)c3)cc21 + N=C(N)NC(=N)NCCc1ccccc1 [Phenformin] (partner 250 µM)
# How it was run: as §1
# [4] = compound: CCn1c(-c2nonc2N)nc2cnc(Oc3cccc(NC(=O)c4ccc(OCCN5CCOCC5)cc4)c3)cc21 + NC(=O)Nc1cc(-c2cccc(F)c2)sc1C(=O)N[C@H]1CCCNC1 [AZD7762] (partner 0.2 µM)
# How it was run: as §1
Cell Line,relative viability ([1]; first compound 0.04 µM),relative viability ([1]; first compound 0.1265 µM),relative viability ([1]; first compound 0.4 µM),relative viability ([1]; first compound 4 µM),relative viability ([2]; first compound 0.04 µM),relative viability ([2]; first compound 0.1265 µM),relative viability ([2]; first compound 0.4 µM),relative viability ([2]; first compound 1.265 µM),relative viability ([2]; first compound 4 µM),relative viability ([3]; first compound 0.04 µM),relative viability ([3]; first compound 0.1265 µM),relative viability ([3]; first compound 0.4 µM),relative viability ([3]; first compound 1.265 µM),relative viability ([3]; first compound 4 µM),relative viability ([4]; first compound 0.04 µM),relative viability ([4]; first compound 0.1265 µM),relative viability ([4]; first compound 0.4 µM),relative viability ([4]; first compound 1.265 µM),relative viability ([4]; first compound 4 µM),relative viability ([1]; first compound 1.265 µM)
HCC-827,0.687,0.588,0.544,0.587,0.453,0.434,0.387,0.383,0.346,0.489,0.484,0.439,0.414,0.399,0.241,0.23,0.233,0.178,0.203,
HOP-62,1.11,0.991,0.895,0.816,0.393,0.445,0.344,0.283,0.234,0.739,0.686,0.55,0.357,0.368,0.774,0.443,0.468,0.227,0.19,0.954
LC-2-ad,0.952,1.01,1.01,0.939,0.517,0.365,0.418,0.294,0.328,0.679,0.563,0.397,0.362,0.524,0.882,0.79,0.57,0.368,0.281,0.873
LCLC-97TM1,0.706,0.779,0.724,0.716,0.201,0.271,0.192,0.249,0.222,0.485,0.431,0.23,0.463,0.361,0.273,0.425,,,0.135,0.733
LCLC-103H,0.948,0.98,0.999,0.721,0.508,0.463,0.534,0.465,0.419,0.421,0.286,0.182,0.216,0.222,0.837,0.743,0.422,0.397,0.404,0.886
LK-2,0.204,0.182,0.159,0.202,0.198,0.159,0.173,0.179,0.171,0.864,0.618,0.167,0.189,0.244,0.525,0.583,0.156,0.113,0.284,0.195
LOU-NH91,0.341,0.403,0.32,0.313,0.631,0.518,0.45,0.353,0.369,0.797,0.605,0.465,0.389,0.404,0.782,0.631,0.421,0.432,0.424,0.323
NCI-H520,0.243,0.256,0.264,0.199,0.419,0.368,0.359,0.345,0.378,0.887,0.631,0.404,0.306,0.288,,,,,,
NCI-H661,0.968,0.935,0.885,0.783,0.377,0.367,0.37,0.372,0.266,0.258,0.253,0.203,0.23,0.195,,,,,,0.872
NCI-H1563,0.539,0.545,0.529,0.531,,,,,,0.592,0.61,0.507,0.582,0.553,,,,,,0.478
NCI-H1623,0.44,0.513,0.383,0.651,0.473,0.396,0.369,0.346,0.457,0.629,0.594,0.499,0.536,0.605,,,,,,0.476
NCI-H1648,,,,,0.415,0.833,0.88,0.713,0.547,,,,,,0.978,1.02,0.981,1.09,0.693,
NCI-H1650,0.212,0.207,0.186,0.213,0.469,0.394,0.386,0.223,0.25,0.47,0.382,0.229,0.397,0.369,,,,,,
NCI-H1703,,,,,,,,,,,,,,,,0.111,0.115,0.119,0.123,
NCI-H1792,0.507,0.496,0.427,0.42,,,,,,0.333,0.177,0.0802,0.145,0.225,0.541,0.37,0.15,0.106,0.11,
NCI-H2009,1.1,0.966,1.02,0.87,0.745,0.635,0.53,0.331,0.275,0.493,0.357,0.284,0.192,0.224,,,,,,1.06
NCI-H2023,0.7,0.594,0.706,0.626,0.363,0.334,0.277,0.16,0.136,0.538,0.381,0.328,0.223,0.186,,,,,,0.72
NCI-H2228,0.131,0.132,0.131,0.175,0.297,0.28,0.247,0.208,0.166,0.41,0.31,0.329,0.318,0.331,,,,,,0.144
SK-LU-1,0.205,0.203,0.213,0.213,0.402,0.371,0.29,0.238,0.218,0.488,0.409,0.333,0.251,0.238,,,,,,0.178
SK-MES-1,0.779,0.951,0.718,0.793,0.811,0.657,0.518,0.228,0.21,0.695,0.655,0.515,0.271,0.257,,,,,,0.735
SW 1573,0.158,0.211,0.174,0.399,0.255,0.149,0.12,0.145,0.0839,0.513,0.345,0.344,0.282,0.154,,,,,,0.273
